The kinase profiling compilation of Christmann-Franck et al. (2016)

Experiments:
Test in all cases: KINOMEscan competition binding
Conditions in all cases: compound 2.0 µM
[1] = target: AAK1 (human) (UniProt Q2M2I8)
[2] = target: ANKK1 (human) (UniProt Q8NFD2)
[3] = target: AXL (human) (UniProt P30530)
[4] = target: BLK (human) (UniProt P51451)
[5] = target: CAMKK1 (human) (UniProt Q8N5S9)
[6] = target: CDK11B (human) (UniProt P21127)
[7] = target: CDK4 CCND1 (human) (UniProt P11802+P24385)
[8] = test system: CPK1 (P.falciparum)
[9] = test system: EGFR (human), P00533 [G719S]
[10] = test system: EGFR (human), P00533 [T790M/L858R]
[11] = test system: FLT3 (human), P36888 [K663Q]
[12] = target: FYN (human) (UniProt P06241)
[13] = target: GRK4 (human) (UniProt P32298)
[14] = target: GSK3A (human) (UniProt P49840)
[15] = target: HUNK (human) (UniProt P57058)
[16] = target: ICK (human) (UniProt Q9UPZ9)
[17] = target: JAK1 JH1 catalytic (human) (UniProt P23458)
[18] = target: JAK1 JH2 pseudokinase (human) (UniProt P23458)
[19] = test system: KIT (human), P10721 [D816H]
Chain of KIT (human), P10721 [D816H] (P10721 whole entry D816H, looked up): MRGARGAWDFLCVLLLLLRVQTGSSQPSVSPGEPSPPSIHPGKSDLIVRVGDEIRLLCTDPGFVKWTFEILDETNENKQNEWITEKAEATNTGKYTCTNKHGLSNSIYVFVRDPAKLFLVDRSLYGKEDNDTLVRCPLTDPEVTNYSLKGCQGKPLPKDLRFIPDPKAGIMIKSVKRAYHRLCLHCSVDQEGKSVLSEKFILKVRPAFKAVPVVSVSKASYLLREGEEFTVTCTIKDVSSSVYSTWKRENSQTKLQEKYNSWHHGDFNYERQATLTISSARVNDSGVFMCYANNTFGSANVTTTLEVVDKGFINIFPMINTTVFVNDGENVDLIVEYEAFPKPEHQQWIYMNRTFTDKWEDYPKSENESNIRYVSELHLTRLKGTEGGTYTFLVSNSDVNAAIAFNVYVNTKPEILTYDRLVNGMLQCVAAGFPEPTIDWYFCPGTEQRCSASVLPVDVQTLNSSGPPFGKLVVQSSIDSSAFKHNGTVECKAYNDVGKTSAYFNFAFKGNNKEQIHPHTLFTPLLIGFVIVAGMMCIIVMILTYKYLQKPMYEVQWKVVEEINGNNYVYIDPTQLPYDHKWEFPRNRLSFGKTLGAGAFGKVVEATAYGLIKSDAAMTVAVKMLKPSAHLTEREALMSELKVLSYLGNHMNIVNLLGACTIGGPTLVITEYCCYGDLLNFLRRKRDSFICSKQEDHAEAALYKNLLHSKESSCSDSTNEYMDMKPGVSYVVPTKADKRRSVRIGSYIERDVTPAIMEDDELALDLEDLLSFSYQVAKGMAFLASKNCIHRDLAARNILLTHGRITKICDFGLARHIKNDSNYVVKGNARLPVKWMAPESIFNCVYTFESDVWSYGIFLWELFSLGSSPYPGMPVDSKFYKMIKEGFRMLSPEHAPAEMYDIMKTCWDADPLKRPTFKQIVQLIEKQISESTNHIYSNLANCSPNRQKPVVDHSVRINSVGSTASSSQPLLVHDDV

[20] = target: LATS2 (human) (UniProt Q9NRM7)
[21] = target: MAK (human) (UniProt P20794)
[22] = target: MAP2K1 (human) (UniProt Q02750)
Chain of MAP2K1 (human) (Q02750 whole entry, looked up): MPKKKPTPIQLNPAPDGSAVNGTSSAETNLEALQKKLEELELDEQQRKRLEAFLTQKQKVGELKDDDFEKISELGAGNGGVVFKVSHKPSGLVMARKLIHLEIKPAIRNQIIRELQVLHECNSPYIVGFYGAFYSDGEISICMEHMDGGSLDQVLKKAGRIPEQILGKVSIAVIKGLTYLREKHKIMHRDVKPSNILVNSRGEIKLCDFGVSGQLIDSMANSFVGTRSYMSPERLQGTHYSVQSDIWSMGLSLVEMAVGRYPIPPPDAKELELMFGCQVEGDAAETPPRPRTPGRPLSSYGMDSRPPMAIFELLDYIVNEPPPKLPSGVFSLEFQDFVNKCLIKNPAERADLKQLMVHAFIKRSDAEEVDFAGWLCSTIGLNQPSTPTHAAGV

[23] = target: MAP3K9 (human) (UniProt P80192)
[24] = target: MAP4K1 (human) (UniProt Q92918)
[25] = target: MAPK10 (human) (UniProt P53779)
[26] = target: MAPK6 (human) (UniProt Q16659)
[27] = target: MAPK7 (human) (UniProt Q13164)
[28] = target: MST4 (human) (UniProt Q9P289)
Chain of MST4 (human) (Q9P289 whole entry, looked up): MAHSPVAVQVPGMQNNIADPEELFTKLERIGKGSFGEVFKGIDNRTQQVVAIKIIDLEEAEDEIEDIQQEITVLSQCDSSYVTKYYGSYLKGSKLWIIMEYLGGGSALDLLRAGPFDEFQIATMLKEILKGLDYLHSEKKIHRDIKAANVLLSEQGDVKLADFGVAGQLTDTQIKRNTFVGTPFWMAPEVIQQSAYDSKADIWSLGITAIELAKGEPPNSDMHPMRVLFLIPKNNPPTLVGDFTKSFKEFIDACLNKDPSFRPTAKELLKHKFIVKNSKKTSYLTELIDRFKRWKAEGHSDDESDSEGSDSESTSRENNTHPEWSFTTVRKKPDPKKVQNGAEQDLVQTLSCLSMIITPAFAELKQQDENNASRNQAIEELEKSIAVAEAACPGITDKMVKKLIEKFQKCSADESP

[29] = target: MYLK2 (human) (UniProt Q9H1R3)
[30] = test system: PIK3CA (human), P42336 [E545A]
[31] = test system: PIK3CA (human), P42336 [E545K]
[32] = target: PIM3 (human) (UniProt Q86V86)
[33] = target: PKN2 (human) (UniProt Q16513)
[34] = target: PLK4 (human) (UniProt O00444)
[35] = target: PRKG1 (human) (UniProt Q13976)
[36] = target: RET (human) (UniProt P07949)
[37] = target: RIOK1 (human) (UniProt Q9BRS2)
[38] = target: RPS6KA1 KD1 (human) (UniProt Q15418)
[39] = target: RPS6KA1 KD2 (human) (UniProt Q15418)
[40] = target: RPS6KA4 KD1 (human) (UniProt O75676)
Chain of RPS6KA4 KD1 (human) (O75676 whole entry, looked up): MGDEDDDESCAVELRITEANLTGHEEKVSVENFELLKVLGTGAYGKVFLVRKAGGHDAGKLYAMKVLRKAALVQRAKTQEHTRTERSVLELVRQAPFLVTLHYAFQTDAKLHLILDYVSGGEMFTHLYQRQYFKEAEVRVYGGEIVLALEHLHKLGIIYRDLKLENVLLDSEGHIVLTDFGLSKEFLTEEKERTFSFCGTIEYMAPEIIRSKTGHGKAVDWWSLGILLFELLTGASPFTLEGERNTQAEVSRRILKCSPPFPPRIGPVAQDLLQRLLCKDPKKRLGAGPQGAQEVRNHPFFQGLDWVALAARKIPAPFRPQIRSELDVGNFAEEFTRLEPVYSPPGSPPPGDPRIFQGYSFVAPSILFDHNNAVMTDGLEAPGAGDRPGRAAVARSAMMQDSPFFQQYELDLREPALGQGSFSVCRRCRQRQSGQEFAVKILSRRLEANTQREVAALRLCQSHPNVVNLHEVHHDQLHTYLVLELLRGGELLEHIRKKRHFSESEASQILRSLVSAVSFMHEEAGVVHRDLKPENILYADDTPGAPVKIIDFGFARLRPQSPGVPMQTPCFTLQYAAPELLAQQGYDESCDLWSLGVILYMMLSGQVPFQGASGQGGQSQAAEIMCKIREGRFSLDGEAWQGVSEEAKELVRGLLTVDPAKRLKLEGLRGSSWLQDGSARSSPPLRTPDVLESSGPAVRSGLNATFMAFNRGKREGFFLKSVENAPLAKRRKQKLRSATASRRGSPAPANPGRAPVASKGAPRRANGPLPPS

[41] = target: SNRK (human) (UniProt Q9NRH2)
[42] = target: SRPK1 (human) (UniProt Q96SB4)
[43] = target: TESK1 (human) (UniProt Q15569)

Chain of AAK1 (human) (Q2M2I8 whole entry, looked up): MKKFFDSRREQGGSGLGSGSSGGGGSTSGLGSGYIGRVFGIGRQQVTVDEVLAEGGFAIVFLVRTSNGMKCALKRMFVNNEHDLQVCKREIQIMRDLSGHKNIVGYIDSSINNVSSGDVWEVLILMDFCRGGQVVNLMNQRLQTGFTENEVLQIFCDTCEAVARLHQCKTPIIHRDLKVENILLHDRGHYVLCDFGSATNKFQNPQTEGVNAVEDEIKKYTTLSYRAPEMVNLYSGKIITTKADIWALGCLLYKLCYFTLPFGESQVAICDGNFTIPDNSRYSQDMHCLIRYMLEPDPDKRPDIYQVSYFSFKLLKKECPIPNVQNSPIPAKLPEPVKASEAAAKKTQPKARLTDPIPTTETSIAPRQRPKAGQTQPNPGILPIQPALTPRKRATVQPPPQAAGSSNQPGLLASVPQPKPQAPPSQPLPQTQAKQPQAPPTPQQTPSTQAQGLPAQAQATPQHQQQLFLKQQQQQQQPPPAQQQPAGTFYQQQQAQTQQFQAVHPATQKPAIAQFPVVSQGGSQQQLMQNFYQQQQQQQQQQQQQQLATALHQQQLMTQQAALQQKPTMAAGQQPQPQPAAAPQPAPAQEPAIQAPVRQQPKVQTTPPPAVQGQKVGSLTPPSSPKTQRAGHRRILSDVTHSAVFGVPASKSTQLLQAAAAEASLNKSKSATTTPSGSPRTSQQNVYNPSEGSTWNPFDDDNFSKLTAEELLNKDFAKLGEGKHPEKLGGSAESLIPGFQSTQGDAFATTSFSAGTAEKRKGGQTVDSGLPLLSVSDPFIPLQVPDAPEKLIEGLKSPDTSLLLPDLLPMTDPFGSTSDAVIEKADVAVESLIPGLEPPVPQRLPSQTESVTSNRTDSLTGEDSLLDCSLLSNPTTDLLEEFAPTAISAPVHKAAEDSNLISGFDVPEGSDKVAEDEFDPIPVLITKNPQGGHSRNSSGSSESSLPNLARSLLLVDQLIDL
Chain of ANKK1 (human) (Q8NFD2 whole entry, looked up): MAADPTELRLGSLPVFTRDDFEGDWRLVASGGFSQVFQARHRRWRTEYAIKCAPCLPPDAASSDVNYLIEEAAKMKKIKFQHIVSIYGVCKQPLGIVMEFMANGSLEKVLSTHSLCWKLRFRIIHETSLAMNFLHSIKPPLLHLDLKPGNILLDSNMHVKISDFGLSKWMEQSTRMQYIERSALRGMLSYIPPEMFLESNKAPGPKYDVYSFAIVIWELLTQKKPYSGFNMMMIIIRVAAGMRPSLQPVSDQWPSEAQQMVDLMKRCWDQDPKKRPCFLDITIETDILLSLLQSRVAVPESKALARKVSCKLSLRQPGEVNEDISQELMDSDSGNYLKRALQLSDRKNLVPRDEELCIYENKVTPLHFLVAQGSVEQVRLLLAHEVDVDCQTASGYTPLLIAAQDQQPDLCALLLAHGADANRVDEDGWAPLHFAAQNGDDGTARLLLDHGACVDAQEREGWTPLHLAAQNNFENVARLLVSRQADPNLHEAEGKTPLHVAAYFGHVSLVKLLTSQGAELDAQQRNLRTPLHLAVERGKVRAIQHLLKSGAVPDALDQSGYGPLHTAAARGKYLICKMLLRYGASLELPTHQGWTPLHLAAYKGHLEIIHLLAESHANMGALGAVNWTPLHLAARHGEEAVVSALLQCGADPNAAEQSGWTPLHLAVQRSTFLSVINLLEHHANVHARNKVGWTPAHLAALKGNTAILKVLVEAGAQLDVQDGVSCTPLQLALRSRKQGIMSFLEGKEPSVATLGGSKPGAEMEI
Chain of CDK4 CCND1 (human) (P11802 whole entry, looked up): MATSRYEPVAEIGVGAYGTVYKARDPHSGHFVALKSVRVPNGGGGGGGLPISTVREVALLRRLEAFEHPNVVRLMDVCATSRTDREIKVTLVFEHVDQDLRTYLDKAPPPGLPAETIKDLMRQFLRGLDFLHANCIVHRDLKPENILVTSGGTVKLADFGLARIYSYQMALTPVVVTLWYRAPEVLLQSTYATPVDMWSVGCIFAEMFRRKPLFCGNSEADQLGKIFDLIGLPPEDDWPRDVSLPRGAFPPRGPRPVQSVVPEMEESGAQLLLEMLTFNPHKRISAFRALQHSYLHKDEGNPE
Chain of CDK4 CCND1 (human) (P24385 whole entry, looked up): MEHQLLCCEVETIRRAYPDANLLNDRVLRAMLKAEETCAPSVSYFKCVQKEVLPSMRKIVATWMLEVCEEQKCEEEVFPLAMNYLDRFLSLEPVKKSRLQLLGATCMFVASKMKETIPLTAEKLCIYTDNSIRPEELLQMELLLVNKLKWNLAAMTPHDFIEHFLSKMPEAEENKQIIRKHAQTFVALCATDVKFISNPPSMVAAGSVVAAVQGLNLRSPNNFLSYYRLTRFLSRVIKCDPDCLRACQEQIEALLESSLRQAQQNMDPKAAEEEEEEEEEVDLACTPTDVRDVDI

## N#Cc1ccc2ncnc(NCCc3ccc4ccccc4c3)c2c1
[1]
  kinase still bound, per cent of control: 86%
[2]
  kinase still bound, per cent of control: 100%
[3]
  kinase still bound, per cent of control: 88%
[4]
  kinase still bound, per cent of control: 65%
[5]
  kinase still bound, per cent of control: 97%
[6]
  kinase still bound, per cent of control: 99%
[7]
  kinase still bound, per cent of control: 100%
[8]
  kinase still bound, per cent of control: 95%
[9]
  kinase still bound, per cent of control: 86%
[10]
  kinase still bound, per cent of control: 100%
[11]
  kinase still bound, per cent of control: 98%
[12]
  kinase still bound, per cent of control: 98%
[13]
  kinase still bound, per cent of control: 89%
[14]
  kinase still bound, per cent of control: 100%
[15]
  kinase still bound, per cent of control: 100%
[16]
  kinase still bound, per cent of control: 100%
[17]
  kinase still bound, per cent of control: 59%
[18]
  kinase still bound, per cent of control: 100%
[19]
  kinase still bound, per cent of control: 100%
[20]
  kinase still bound, per cent of control: 100%
[21]
  kinase still bound, per cent of control: 99%
[22]
  kinase still bound, per cent of control: 96%
[23]
  kinase still bound, per cent of control: 85%
[24]
  kinase still bound, per cent of control: 81%
[25]
  kinase still bound, per cent of control: 100%
[26]
  kinase still bound, per cent of control: 91%
[27]
  kinase still bound, per cent of control: 93%
[28]
  kinase still bound, per cent of control: 77%
[29]
  kinase still bound, per cent of control: 99%
[30]
  kinase still bound, per cent of control: 92%
[31]
  kinase still bound, per cent of control: 94%
[32]
  kinase still bound, per cent of control: 100%
[33]
  kinase still bound, per cent of control: 100%
[34]
  kinase still bound, per cent of control: 100%
[35]
  kinase still bound, per cent of control: 85%
[36]
  kinase still bound, per cent of control: 90%
[37]
  kinase still bound, per cent of control: 71%
[38]
  kinase still bound, per cent of control: 81%
[39]
  kinase still bound, per cent of control: 88%
[40]
  kinase still bound, per cent of control: 83%
[41]
  kinase still bound, per cent of control: 36%
[42]
  kinase still bound, per cent of control: 100%
[43]
  kinase still bound, per cent of control: 100%
